This is an account of results in ChEMBL document CHEMBL1201862, “PubChem BioAssay data set” (2004).

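Five compound concentrations were applied to cells in 96-well plates for 48 hours; endpoints were derived by simple linear interpolation of the resulting dose-response curve. GI50 is the concentration that inhibits growth by half.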 Active and inactive are the calls of the source. Rule as the data show it: active = GI50 up to about 1.1 µM and inactive = higher.

Among the test systems are EKVX; RXF 393; HCT-15; ACHN; CCRF-CEM; HT-29; NCI-H460; HCT-116; DU-145; OVCAR-4; HOP-92; SK-MEL-2; SF-268; UACC-257; COLO 205; SR; NCI-H226; K562; UO-31; MDA-N.
Holding throughout (assay): NCI tumour cell line growth inhibition, 48 h

`COc1ccc(OC)c([N+](=O)[O-])c1-c1nc2sc(Cl)cn2c1/C=N/N=C(N)N`: the GI50 in the assay on EKVX is 25.6 µM (inactive); in the assay on RXF 393, 20.1 µM (inactive); in the assay on HCT-15, 41.2 µM; in the assay with ACHN, 28.6 µM (inactive); in the assay with CCRF-CEM, 30.9 µM (inactive); in the assay with HT-29, 15.5 µM (inactive). The GI50 was 20.7 µM (inactive) with NCI-H460; 58.3 µM (inactive) with HCT-116; 21.8 µM (inactive) in the assay on DU-145; 12.2 µM (inactive) in the assay on OVCAR-4; 10.1 µM (inactive) with HOP-92; 18.6 µM (inactive) in the assay on SK-MEL-2. In addition, the GI50 in the assay with SF-268 was 20.8 µM (inactive); in the assay with UACC-257, 19.3 µM (inactive); in the assay with COLO 205 it was 15.3 µM (inactive); in the assay with SR it was 14.2 µM (inactive); in the assay on NCI-H226, 18.2 µM (inactive); in the assay on K562, 7.53 µM (inactive). In the assay with UO-31, the GI50 was 16.7 µM (inactive).

Turning to `NS(=O)(=O)c1nnc(NS(=O)(=O)c2ccc([N+](=O)[O-])cc2)s1`, the GI50 in the assay with EKVX was > 100 µM (inactive); with RXF 393, > 100 µM (inactive); with HCT-15, more than 100 µM; in the assay with ACHN, > 100 µM (inactive); in the assay on HT-29 it was > 100 µM (inactive); with NCI-H460, > 100 µM (inactive). Also, the GI50 in the assay with HCT-116, with DU-145, in the assay with OVCAR-4, with HOP-92, in the assay on SK-MEL-2 and with SF-268 was > 100 µM (inactive) each time. Besides, the GI50 with COLO 205 is > 100 µM (inactive); in the assay on SR, 32.7 µM (inactive); in the assay on NCI-H226, > 100 µM (inactive); in the assay on K562, 33.6 µM (inactive); in the assay with UO-31, > 100 µM (inactive).

For the compound `COc1cccc(CCNc2c(C#N)c3nc4ccccc4n3c3ccccc23)c1`, the GI50 was 2.09 µM (inactive) with EKVX; 0.607 µM (active) in the assay on RXF 393; 0.423 µM in the assay on HCT-15; 0.998 µM (active) with ACHN; 0.736 µM (active) with CCRF-CEM; 0.337 µM (active) with HT-29. The GI50 in the assay on NCI-H460 was 0.378 µM (active); in the assay on HCT-116, 0.405 µM (active); with DU-145, 2.29 µM (inactive); with OVCAR-4 it was 2.79 µM (inactive); in the assay on HOP-92, 29.6 µM (inactive); with SK-MEL-2 it was > 41.6 µM (inactive). The GI50 with SF-268 was 2.06 µM (inactive); with UACC-257 it was 0.851 µM (active); in the assay on COLO 205, 0.447 µM (active); with SR, 0.177 µM (active); with NCI-H226, 1.58 µM (inactive); in the assay on K562 it was 0.141 µM (active). For the same compound, the GI50 with UO-31 was 2.81 µM (inactive).

On to `COc1cc(S(=O)(=O)Nc2ccc(-c3csc(N4C(=O)C(C)SC4c4cccs4)n3)cc2)ccc1Cl` (stereo unspecified), for which the GI50 was 57.5 µM (inactive) with EKVX; 11.1 µM (inactive) in the assay with RXF 393; 37 µM in the assay on HCT-15; > 100 µM (inactive) with ACHN; 8.28 µM (inactive) with CCRF-CEM; 30.5 µM (inactive) with HT-29. Also, the GI50 is 35.1 µM (inactive) in the assay on HCT-116; 20.7 µM (inactive) with DU-145; 20.1 µM (inactive) with HOP-92; 6.49 µM (inactive) in the assay with SK-MEL-2; 22.5 µM (inactive) with SF-268; 24.9 µM (inactive) in the assay with COLO 205. Also, the GI50 is 33.8 µM (inactive) in the assay on SR, 6.28 µM (inactive) in the assay with NCI-H226, 28.4 µM (inactive) in the assay with K562 and 46.3 µM (inactive) with UO-31.

With `NC(CCCCNC(=O)OCc1ccccc1)C(=O)NC(CCCCNC(=O)OCc1ccccc1)C(=O)ON1C(=O)CCC1=O` (stereo unspecified), the GI50 in the assay on EKVX was > 100 µM (inactive); with RXF 393 it was 52.7 µM (inactive); in the assay on HCT-15 it was more than 100 µM; with ACHN it was > 100 µM (inactive); in the assay with CCRF-CEM, > 100 µM (inactive); in the assay on MDA-N, > 100 µM (inactive). In addition, the GI50 in the assay on HT-29, in the assay with NCI-H460, in the assay with HCT-116, in the assay on HOP-92, with SK-MEL-2 and with UACC-257 was > 100 µM (inactive) in each case. The GI50 with COLO 205, with SR, in the assay with NCI-H226, in the assay with K562 and in the assay with UO-31 was > 100 µM (inactive) each time.

Take `C=C1c2nc3ccccc3n2C=C(c2ccccc2)N1c1ccc(C)cc1`: the GI50 was > 100 µM (inactive) in the assay on EKVX; 59.6 µM (inactive) with RXF 393; 35.4 µM with HCT-15; 53.5 µM (inactive) in the assay on ACHN; 55.6 µM (inactive) in the assay with CCRF-CEM; 56.6 µM (inactive) in the assay on NCI-H460. Moreover, the GI50 in the assay on HCT-116 is 36.9 µM (inactive); in the assay with DU-145 it was > 100 µM (inactive); in the assay on OVCAR-4, 71.8 µM (inactive); in the assay on HOP-92 it was 41.4 µM (inactive); in the assay with SK-MEL-2, > 100 µM (inactive); in the assay with UACC-257 it was 80.4 µM (inactive). Further, the GI50 with COLO 205 was 73.5 µM (inactive); in the assay with SR, 10.3 µM (inactive); with NCI-H226, 68.7 µM (inactive); in the assay with K562 it was 31.5 µM (inactive); in the assay on UO-31 it was 36.1 µM (inactive).

For `Cc1ccccc1NC(=N)Nc1ccccc1C`, the GI50 in the assay on EKVX is > 100 µM (inactive); in the assay with RXF 393 it was > 100 µM (inactive); in the assay on HCT-15 it was more than 100 µM; in the assay with ACHN, > 100 µM (inactive); with CCRF-CEM, > 100 µM (inactive); with MDA-N, > 100 µM (inactive). The GI50 in the assay on HT-29, in the assay with NCI-H460, in the assay on HCT-116, in the assay on DU-145, with OVCAR-4 and in the assay on SK-MEL-2 was > 100 µM (inactive) each time. Moreover, the GI50 in the assay on SF-268, with UACC-257, in the assay with COLO 205, in the assay with NCI-H226 and with K562 was > 100 µM (inactive) in each case.

With `O=C(NC1CCN(Cc2ccccc2)CC1)c1cccc(I)c1`, the GI50 in the assay on EKVX was 45.2 µM (inactive); with RXF 393, 51.8 µM (inactive); in the assay with HCT-15 it was 17.5 µM; in the assay on ACHN it was 52.4 µM (inactive); in the assay with CCRF-CEM, 33.3 µM (inactive); in the assay on HT-29 it was 19.5 µM (inactive). Moreover, the GI50 with NCI-H460 is 22 µM (inactive); with HCT-116, 15.3 µM (inactive); in the assay on DU-145, 72.3 µM (inactive); with OVCAR-4, 58.2 µM (inactive); in the assay with HOP-92, 22 µM (inactive); with SK-MEL-2, 18.7 µM (inactive). The GI50 in the assay on SF-268 was 50.9 µM (inactive); with UACC-257 it was 16.4 µM (inactive); with COLO 205, 17.6 µM (inactive); in the assay on SR, 18.8 µM (inactive); in the assay with NCI-H226 it was 31.6 µM (inactive); with K562 it was 22.6 µM (inactive). Moreover, in the assay on UO-31, the GI50 was 17 µM (inactive).
